Measured values reported in patent US20160158317A1, “Antimicrobial Peptide Variants and Polynucleotides Encoding Same” (Adenium Biotech A/S, priority 2010, published 2016).
Where a SMILES comes first, the peptide text is derived from it. Bridges are numbered along the chain shown (N, C = ends).

Experiment: Determination of the protein binding (90% serum, 30 kDa filter, HPLC)
Format: in vitro ADME
Conditions: serum
Method: Protein binding assays were performed as follows. The purified peptides were mixed with 90% serum and centrifuged through a 30 kDa filter. The ultra-filtrate and the non filtrated serum samples were quantified by HPLC measurements and the protein binding was subsequently calculated.

| SMILES | fraction unbound |
| --- | --- |
| CC(C)[C@@H]1NC(=O)CNC(=O)[C@H](CC(N)=O)NC(=O)[C@H](CCCNC(=N)N)NC(=O)[C@H](Cc2ccc(O)cc2)NC(=O)[C@H](C(C)C)NC(=O)[C@@H]2CSSC[C@H](NC(=O)[C@H](C(C)C)NC(=O)[C@H](CCCNC(=N)N)NC1=O)C(=O)N[C@@H](Cc1ccc(O)cc1)C(=O)N[C@@H](CCCNC(=N)N)C(=O)N[C@@H](CCCNC(=N)N)C(=O)N[C@H](C(=O)N[C@@H](CC(N)=O)C(=O)O)CSSC[C@H](NC(=O)[C@H](Cc1ccccc1)NC(=O)CN)C(=O)N[C@@H](Cc1c[nH]c3ccccc13)C(=O)N[C@@H](CCCNC(=N)N)C(=O)N[C@@H](C)C(=O)N2 [compound 72] (H-GFCWRACVYRNGVRVCYRRCN-OH; disulfide 3-20, 7-16 (inferred); N-terminus and C-terminus assumed) | 0.03 |
| CC(C)[C@@H]1NC(=O)CNC(=O)[C@H](CC(N)=O)NC(=O)[C@H](CCCNC(=N)N)NC(=O)[C@H](Cc2ccc(O)cc2)NC(=O)[C@H](Cc2c[nH]cn2)NC(=O)[C@@H]2CSSC[C@H](NC(=O)[C@H](C(C)C)NC(=O)[C@H](CCCNC(=N)N)NC1=O)C(=O)N[C@@H](Cc1ccc(O)cc1)C(=O)N[C@@H](CCCNC(=N)N)C(=O)N[C@@H](CCCNC(=N)N)C(=O)N[C@H](C(=O)N[C@@H](CC(N)=O)C(=O)O)CSSC[C@H](NC(=O)[C@H](Cc1ccccc1)NC(=O)CN)C(=O)N[C@@H](Cc1c[nH]c3ccccc13)C(=O)N[C@@H](CCCNC(=N)N)C(=O)N[C@@H](C(C)C)C(=O)N2 [compound 74] (H-GFCWRVCHYRNGVRVCYRRCN-OH; disulfide 3-20, 7-16 (inferred); N-terminus and C-terminus assumed) | 0.01 |
| CC(C)[C@@H]1NC(=O)CNC(=O)[C@H](CC(N)=O)NC(=O)[C@H](CCCNC(=N)N)NC(=O)[C@H](Cc2ccc(O)cc2)NC(=O)[C@H](C(C)C)NC(=O)[C@@H]2CSSC[C@H](NC(=O)[C@H](C(C)C)NC(=O)[C@H](CCCNC(=N)N)NC1=O)C(=O)N[C@@H](Cc1c[nH]cn1)C(=O)N[C@@H](CCCNC(=N)N)C(=O)N[C@@H](CCCNC(=N)N)C(=O)N[C@H](C(=O)N[C@@H](CC(N)=O)C(=O)O)CSSC[C@H](NC(=O)[C@H](Cc1ccccc1)NC(=O)CN)C(=O)N[C@@H](Cc1c[nH]c3ccccc13)C(=O)N[C@@H](CCCNC(=N)N)C(=O)N[C@@H](C(C)C)C(=O)N2 [compound 76] (H-GFCWRVCVYRNGVRVCHRRCN-OH; disulfide 3-20, 7-16 (inferred); N-terminus and C-terminus assumed) | 0.08 |
| CC(C)[C@@H]1NC(=O)[C@@H]2CSSC[C@H](NC(=O)[C@H](C(C)C)NC(=O)[C@H](CCCNC(=N)N)NC(=O)[C@H](CCCCN)NC(=O)CNC(=O)[C@H](CC(N)=O)NC(=O)[C@H](CCCNC(=N)N)NC(=O)[C@H](Cc3ccc(O)cc3)NC1=O)C(=O)N[C@@H](Cc1ccc(O)cc1)C(=O)N[C@@H](CCCNC(=N)N)C(=O)N[C@@H](CCCNC(=N)N)C(=O)N[C@H](C(=O)N[C@@H](CC(N)=O)C(=O)O)CSSC[C@H](NC(=O)[C@H](Cc1ccccc1)NC(=O)CN)C(=O)N[C@@H](Cc1c[nH]c3ccccc13)C(=O)N[C@@H](Cc1ccc(O)cc1)C(=O)N[C@@H](C)C(=O)N2 [compound 80] (H-GFCWYACVYRNGKRVCYRRCN-OH; disulfide 3-20, 7-16 (inferred); N-terminus and C-terminus assumed) | 0.04 |
| CC(C)[C@@H]1NC(=O)CNC(=O)[C@H](CC(N)=O)NC(=O)[C@H](CCCNC(=N)N)NC(=O)[C@H](CCCCN)NC(=O)[C@H](C(C)C)NC(=O)[C@@H]2CSSC[C@H](NC(=O)[C@H](CO)NC(=O)[C@H](CCCNC(=N)N)NC1=O)C(=O)N[C@@H](Cc1ccc(O)cc1)C(=O)N[C@@H](CCCNC(=N)N)C(=O)N[C@@H](CCCNC(=N)N)C(=O)N[C@H](C(=O)N[C@@H](CC(N)=O)C(=O)O)CSSC[C@H](NC(=O)[C@H](Cc1ccccc1)NC(=O)CN)C(=O)N[C@@H](Cc1c[nH]c3ccccc13)C(=O)N[C@@H](Cc1ccc(O)cc1)C(=O)N[C@@H](C(C)C)C(=O)N2 [compound 87] (H-GFCWYVCVKRNGVRSCYRRCN-OH; disulfide 3-20, 7-16 (inferred); N-terminus and C-terminus assumed) | 0.07 |
| CC(C)[C@@H]1NC(=O)CNC(=O)[C@H](CC(N)=O)NC(=O)[C@H](CCCCN)NC(=O)[C@H](Cc2ccc(O)cc2)NC(=O)[C@H](C(C)C)NC(=O)[C@@H]2CSSC[C@H](NC(=O)[C@H](C(C)C)NC(=O)[C@H](CCCNC(=N)N)NC1=O)C(=O)N[C@@H](Cc1c[nH]cn1)C(=O)N[C@@H](CCCNC(=N)N)C(=O)N[C@@H](CCCNC(=N)N)C(=O)N[C@H](C(=O)N[C@@H](CC(N)=O)C(=O)O)CSSC[C@H](NC(=O)[C@H](Cc1ccccc1)NC(=O)CN)C(=O)N[C@@H](Cc1c[nH]c3ccccc13)C(=O)N[C@@H](Cc1ccc(O)cc1)C(=O)N[C@@H](C(C)C)C(=O)N2 [compound 89] (H-GFCWYVCVYKNGVRVCHRRCN-OH; disulfide 3-20, 7-16 (inferred); N-terminus and C-terminus assumed) | 0.1 |
| CC(C)[C@@H]1NC(=O)CNC(=O)[C@H](CC(N)=O)NC(=O)[C@H](CCCNC(=N)N)NC(=O)[C@H](Cc2ccc(O)cc2)NC(=O)[C@H](C(C)C)NC(=O)[C@@H]2CSSC[C@H](NC(=O)[C@H](C(C)C)NC(=O)[C@H](CCCNC(=N)N)NC1=O)C(=O)N[C@@H](Cc1c[nH]cn1)C(=O)N[C@@H](CCCNC(=N)N)C(=O)N[C@@H](CCCNC(=N)N)C(=O)N[C@H](C(=O)N[C@@H](CC(N)=O)C(=O)O)CSSC[C@H](NC(=O)[C@H](Cc1ccccc1)NC(=O)[C@@H](N)Cc1c[nH]cn1)C(=O)N[C@@H](Cc1c[nH]c3ccccc13)C(=O)N[C@@H](CC(N)=O)C(=O)N[C@@H](C(C)C)C(=O)N2 [compound 98] (H-HFCWNVCVYRNGVRVCHRRCN-OH; disulfide 3-20, 7-16 (inferred); N-terminus and C-terminus assumed) | 0.23 |
| CC(C)[C@@H]1NC(=O)CNC(=O)[C@H](CC(N)=O)NC(=O)[C@H](CCCNC(=N)N)NC(=O)[C@H](Cc2ccc(O)cc2)NC(=O)[C@H](C(C)C)NC(=O)[C@@H]2CSSC[C@H](NC(=O)[C@H](C(C)C)NC(=O)[C@H](CCCNC(=N)N)NC1=O)C(=O)N[C@@H](Cc1c[nH]cn1)C(=O)N[C@@H](CCCNC(=N)N)C(=O)N[C@@H](CCCNC(=N)N)C(=O)N[C@H](C(=O)N[C@@H](CC(N)=O)C(=O)O)CSSC[C@H](NC(=O)[C@H](Cc1ccccc1)NC(=O)[C@@H](N)CCCCN)C(=O)N[C@@H](Cc1c[nH]c3ccccc13)C(=O)N[C@@H](CC(N)=O)C(=O)N[C@@H](C(C)C)C(=O)N2 [compound 100] (H-KFCWNVCVYRNGVRVCHRRCN-OH; disulfide 3-20, 7-16 (inferred); N-terminus and C-terminus assumed) | 0.22 |
| CSCC[C@H](N)C(=O)N[C@@H](Cc1ccccc1)C(=O)N[C@H]1CSSC[C@@H](C(=O)N[C@@H](CC(N)=O)C(=O)O)NC(=O)[C@H](CCCNC(=N)N)NC(=O)[C@H](CCCNC(=N)N)NC(=O)[C@H](Cc2c[nH]cn2)NC(=O)[C@@H]2CSSC[C@H](NC(=O)[C@H](C(C)C)NC(=O)[C@H](CC(N)=O)NC(=O)[C@H](Cc3c[nH]c4ccccc34)NC1=O)C(=O)N[C@@H](C(C)C)C(=O)N[C@@H](Cc1ccc(O)cc1)C(=O)N[C@@H](CCCNC(=N)N)C(=O)N[C@@H](CC(N)=O)C(=O)NCC(=O)N[C@@H](C(C)C)C(=O)N[C@@H](CCCNC(=N)N)C(=O)N[C@@H](C(C)C)C(=O)N2 [compound 101] (H-MFCWNVCVYRNGVRVCHRRCN-OH; disulfide 3-20, 7-16 (inferred); N-terminus and C-terminus assumed) | 0.19 |
| CC(C)[C@@H]1NC(=O)CNC(=O)[C@H](CC(N)=O)NC(=O)[C@H](CCCNC(=N)N)NC(=O)[C@H](Cc2ccc(O)cc2)NC(=O)[C@H](C(C)C)NC(=O)[C@@H]2CSSC[C@H](NC(=O)[C@H](CO)NC(=O)[C@H](CCCNC(=N)N)NC1=O)C(=O)N[C@@H](Cc1ccc(O)cc1)C(=O)N[C@@H](CCCNC(=N)N)C(=O)N[C@@H](CCCNC(=N)N)C(=O)N[C@H](C(=O)N[C@@H](CC(N)=O)C(=O)O)CSSC[C@H](NC(=O)[C@H](Cc1ccccc1)NC(=O)CN)C(=O)N[C@@H](C)C(=O)N[C@@H](CCCCN)C(=O)N[C@@H](C(C)C)C(=O)N2 [compound 120] (H-GFCAKVCVYRNGVRSCYRRCN-OH; disulfide 3-20, 7-16 (inferred); N-terminus and C-terminus assumed) | 0.31 |
| CC(C)[C@@H]1NC(=O)CNC(=O)[C@H](CC(N)=O)NC(=O)[C@H](CCCNC(=N)N)NC(=O)[C@H](Cc2ccc(O)cc2)NC(=O)[C@H](C(C)C)NC(=O)[C@@H]2CSSC[C@H](NC(=O)[C@H](CO)NC(=O)[C@H](CCCNC(=N)N)NC1=O)C(=O)N[C@@H](Cc1ccc(O)cc1)C(=O)N[C@@H](CCCNC(=N)N)C(=O)N[C@@H](CCCNC(=N)N)C(=O)N[C@H](C(=O)N[C@@H](CC(N)=O)C(=O)O)CSSC[C@H](NC(=O)[C@H](Cc1ccccc1)NC(=O)CN)C(=O)N[C@@H](C)C(=O)N[C@@H](CCCNC(=N)N)C(=O)N[C@@H](C(C)C)C(=O)N2 [compound 122] (H-GFCARVCVYRNGVRSCYRRCN-OH; disulfide 3-20, 7-16) | 0.19 |
| CC(C)[C@@H]1NC(=O)CNC(=O)[C@H](CC(N)=O)NC(=O)[C@H](CCCNC(=N)N)NC(=O)[C@H](CCCCN)NC(=O)[C@H](C(C)C)NC(=O)[C@@H]2CSSC[C@H](NC(=O)[C@H](C(C)C)NC(=O)[C@H](CCCNC(=N)N)NC1=O)C(=O)N[C@@H](Cc1ccc(O)cc1)C(=O)N[C@@H](CCCNC(=N)N)C(=O)N[C@@H](CCCNC(=N)N)C(=O)N[C@H](C(=O)N[C@@H](CC(N)=O)C(=O)O)CSSC[C@H](NC(=O)[C@H](Cc1ccccc1)NC(=O)CN)C(=O)N[C@@H](C)C(=O)N[C@@H](CCCNC(=N)N)C(=O)N[C@@H](C(C)C)C(=O)N2 [compound 125] (H-GFCARVCVKRNGVRVCYRRCN-OH; disulfide 3-20, 7-16 (inferred); N-terminus and C-terminus assumed) | 0.1 |
